Experimental data taken from patent US20250195521A1 (Revolution Medicines, Inc., priority 2020, published 2025).
Like-named read-outs stand apart in the source and are kept apart here.

Assays:
[1] = system: K-Ras G12C (NCI-H358 cells); experiment: Potency assay: pERK in NCI-H358 cells; format: cell-based, human; settings: Homo sapiens, read-out: pERK EC50 (H358 KRAS G12C)
Outline: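 Cells plated the day before were exposed for 4 h at 37° C, 5% CO2 to a 10-point, 3-fold DMSO dilution series (10 mM top stock), in duplicate. Phospho-ERK was read by AlphaLISA SureFire Ultra or by In-Cell Western with DRAQ5 DNA stain, and IC50 came from a 4-parameter sigmoidal fit.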

[2] = system: NCI-H358 cells (K-Ras G12C); experiment: CellTiter-Glo cell viability, NCI-H358; format: cell-based, human; settings: Homo sapiens, NCI-H358, 120 h, read-out: H358 Cell Viability IC50
Outline: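 Compounds dispensed directly onto seeded cells; on day 5 plates equilibrated ~30 min to room temperature and luminescence read. Signal normalized to DMSO average (%) and fitted by four-parameter logistic.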

NRAS G12C = NRAS G12C (Homo sapiens (Human), UniProt P01111+P62937, G12C); experiment: Ras-Raf disruption/FRET/MOA assay (BRAF RBD, Cyclophilin A); format: biochemical; settings: read-out: NRAS G12C FRET data IC50
NRAS G12C, sequence (P01111 whole entry G12C): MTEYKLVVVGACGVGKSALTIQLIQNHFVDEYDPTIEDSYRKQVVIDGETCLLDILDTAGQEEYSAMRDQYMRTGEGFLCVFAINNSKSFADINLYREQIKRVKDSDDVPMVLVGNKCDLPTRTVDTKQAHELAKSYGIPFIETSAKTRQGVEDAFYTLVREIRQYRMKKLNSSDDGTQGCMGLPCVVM
NRAS G12C, sequence (P62937 whole entry): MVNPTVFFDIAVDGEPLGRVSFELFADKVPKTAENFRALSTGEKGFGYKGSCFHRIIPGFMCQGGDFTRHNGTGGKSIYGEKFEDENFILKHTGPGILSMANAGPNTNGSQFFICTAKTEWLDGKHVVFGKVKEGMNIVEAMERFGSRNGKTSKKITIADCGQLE
Outline: (§1)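 First, 25 μM Cyclophilin A, 12.5 nM His6-Ras-GMPPNP and 50 nM GST-BRAF RBD are mixed with diluted compound at pH 7.3. Next, 3 h at 25° C. Then 10 nM anti-His Eu-W1024 plus 50 nM anti-GST allophycocyanin for 1.5 h before TR-FRET reading.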

KRAS G12S = KRAS G12S (Homo sapiens (Human), UniProt P01116+P62937, G12S); experiment: as above; format: biochemical; settings: read-out: KRAS G12S FRET IC50
KRAS G12S, sequence (P01116 other isoform, or with tags, fused parts or gaps G12S): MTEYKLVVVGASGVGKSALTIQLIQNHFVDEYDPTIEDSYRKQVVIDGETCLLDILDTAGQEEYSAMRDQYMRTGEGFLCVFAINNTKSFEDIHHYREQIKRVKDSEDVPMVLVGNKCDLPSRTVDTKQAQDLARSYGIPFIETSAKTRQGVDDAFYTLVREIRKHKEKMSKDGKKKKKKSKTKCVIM
KRAS G12S, sequence (P62937 whole entry): as the sequence (P62937 whole entry) above
Outline: as §1

NCI-H358 (K-Ras G12C) = experiment: CellTiter-Glo cell viability assay, NCI-H358; format: cell-based, human; settings: Homo sapiens, NCI-H358, 120 h
Outline: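 NCI-H358 (K-Ras G12C) cells treated with compound dispensed directly into plates. CellTiter-Glo luminescence read on day 5 after ~30 min equilibration to room temperature. Signal normalised to DMSO average ×100, then fitted with a four-parameter logistic model.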

[3] = 5-day treatment, read-out: H358 Cell Viability assay data (K-Ras G12C, IC50)

Compound | EC50 ([1]; NCI-H358 cells, 4 hours) | IC50 ([2]; K-Ras G12C, 5-day treatment) | IC50 (NRAS G12C) | IC50 (KRAS G12S) | IC50 (NCI-H358 (K-Ras G12C); [3]) | EC50 ([1]; NCI-H358, 4 h) | IC50 [2] | IC50 (NCI-H358 (K-Ras G12C); read-out: H358 Cell Viability assay data (K-Ras G12C, IC50, uM), 5-day treatment)
CCn1c(-c2cccnc2[C@H](C)OC)c2c3cc(ccc31)-c1csc(n1)C[C@H](NC(=O)[C@H](C(C)C)N(C)C(=O)N1C[C@@H]3OCCN(C)[C@@H]3C1)C(=O)N1CCC[C@H](N1)C(=O)OCC(C)(C)C2 [Compound A444] | < 5000 nM | 10 to 100 nM | 10 to 100 nM | 100 to 1000 nM | < 0.01 µM | – | – | –
CCn1c(-c2cccnc2[C@H](C)OC)c2c3cc(ccc31)-c1csc(n1)C[C@H](NC(=O)[C@H](C(C)C)N(C)C(=O)N1C[C@H]3CN(C)CC[C@H]31)C(=O)N1CCC[C@H](N1)C(=O)OCC(C)(C)C2 [Compound A462] | < 5000 nM | 100 to 1000 nM | 100 to 1000 nM | 1000 to 10000 nM | < 0.01 µM | – | – | –
CCn1c(-c2cccnc2[C@H](C)OC)c2c3cc(ccc31)-c1csc(n1)C[C@H](NC(=O)[C@H](C(C)C)N(C)C(=O)N1CCC[C@H](N(C)C)CC1)C(=O)N1CCC[C@H](N1)C(=O)OCC(C)(C)C2 [Compound A493] | < 5000 nM | 10 to 100 nM | 10 to 100 nM | 100 to 1000 nM | < 0.01 µM | – | – | –
CCn1c(-c2cccnc2[C@H](C)OC)c2c3cc(ccc31)-c1csc(n1)C[C@H](NC(=O)[C@H](C(C)C)N(C)C(=O)N(C)C1(C)COC1)C(=O)N1CCC[C@H](N1)C(=O)OCC(C)(C)C2 [Compound A527] | < 5000 nM | 10 to 100 nM | 100 to 1000 nM | 100 to 1000 nM | < 0.01 µM | – | – | –
CCn1c(-c2cccnc2[C@H](C)OC)c2c3cc(ccc31)-c1csc(n1)C[C@H](NC(=O)[C@H](C(C)C)N(C)C(=O)N1CC([C@H](C)COC)C1)C(=O)N1CCC[C@H](N1)C(=O)OCC(C)(C)C2 [Compound A533] | < 5000 nM | 10 to 100 nM | 10 to 100 nM | 100 to 1000 nM | < 0.01 µM | – | – | –
CCn1c(-c2cccnc2[C@H](C)OC)c2c3cc(ccc31)-c1csc(n1)C[C@H](NC(=O)[C@H](C(C)C)N(C)C(=O)N1CCN3C(=O)CN(C)C[C@H]3C1)C(=O)N1CCC[C@H](N1)C(=O)OCC(C)(C)C2 [Compound A537] | < 5000 nM | 10 to 100 nM | 10 to 100 nM | 10 to 100 nM | < 0.01 µM | – | – | –
CCn1c(-c2cccnc2[C@H](C)OC)c2c3cc(ccc31)-c1csc(n1)C[C@H](NC(=O)[C@H](C(C)C)N(C)C(=O)N1CC([C@H](C)N(C)C)C1)C(=O)N1CCC[C@H](N1)C(=O)OCC(C)(C)C2 [Compound A538] | < 5000 nM | 10 to 100 nM | 10 to 100 nM | 100 to 1000 nM | 0.01 to 0.1 µM | – | – | –
CCn1c(-c2cccnc2[C@H](C)OC)c2c3cc(ccc31)-c1csc(n1)C[C@H](NC(=O)[C@H](C(C)C)N(C)C(=O)N1CCCC13CN(C)C3)C(=O)N1CCC[C@H](N1)C(=O)OCC(C)(C)C2 [Compound A545] | < 5000 nM | 100 to 1000 nM | 10 to 100 nM | 100 to 1000 nM | 0.01 to 0.1 µM | – | – | –
CCn1c(-c2cccnc2[C@H](C)OC)c2c3cc(ccc31)-c1cc(O)cc(c1)C[C@H](NC(=O)[C@H](C(C)C)N(C)C(=O)[C@@H]1OCC[C@H]1c1ccccc1)C(=O)N1CCC[C@H](N1)C(=O)OCC(C)(C)C2 [Compound A584] | < 5000 nM | 10 to 100 nM | 10 to 100 nM | 10 to 100 nM | < 0.01 µM | – | – | –
CCn1c(-c2cccnc2[C@H](C)OC)c2c3cc(ccc31)-c1csc(n1)C[C@H](NC(=O)[C@H](C(C)C)N(C)C(=O)N1CCN(C(=O)[C@@H]3CCCN3C)CC1)C(=O)N1CCC[C@H](N1)C(=O)OCC(C)(C)C2 [Compound A596] | < 5000 nM | 10 to 100 nM | 10 to 100 nM | 100 to 1000 nM | < 0.01 µM | – | – | –
CCn1c(-c2cccnc2[C@H](C)OC)c2c3cc(ccc31)-c1csc(n1)C[C@H](NC(=O)[C@H](C(C)C)N(C)C(=O)N1CC(O)(CN(C)C)C1)C(=O)N1CCC[C@H](N1)C(=O)OCC(C)(C)C2 [Compound A597] | < 5000 nM | 10 to 100 nM | 100 to 1000 nM | 100 to 1000 nM | < 0.01 µM | – | – | –
CCn1c(-c2cccnc2[C@H](C)OC)c2c3cc(ccc31)-c1csc(n1)[C@@H](OC)[C@H](NC(=O)[C@H](C(C)C)N(C)C(=O)N(C)C)C(=O)N1CCC[C@H](N1)C(=O)OCC(C)(C)C2 [Compound A598, (2S)—N-((6^3S,3S,4S,Z)-1^1-ethyl-3-methoxy-1^2-(2-((S)-1-methoxyethyl)pyridin-3-yl)-10,10-dimethyl-5,7-dioxo-6^1,6^2,6^3,6^4,6^5,6^6-hexahydro-1^1H-8-oxa-2 (4,2)-thiazola-1 (5,3)-indola-6 (1,3)-pyridazinacycloundecaphane-4-yl)-3-methyl-2-(1,3,3-trimethylureido) butanamide] | – | – | 10 to 100 nM | 100 to 1000 nM | – | < 5000 nM | 100 to 1000 nM | 0.01 to 0.1 µM
CCn1c(-c2cccnc2[C@H](C)OC)c2c3cc(ccc31)-c1csc(n1)C[C@H](NC(=O)[C@H](C(C)C)N(C)C(=O)N1CC3(CCN(C)C3)C1)C(=O)N1CCC[C@H](N1)C(=O)OCC(C)(C)C2 [Compound A602] | < 5000 nM | 100 to 1000 nM | 100 to 1000 nM | 100 to 1000 nM | < 0.01 µM | – | – | –
